# Like-named read-outs stand apart in the source and are kept apart here. Residues, ends and D or L forms follow the SMILES beside them. *: point of attachment. Palmitoyl = CCCCCCCCCCCCCCCC(=O)*
# Tested on: Fibroblasts
# Experiment: MTT cytotoxicity assay
# Type: cell-based
# Protocol: In order to examine the cytotoxicity of the novel peptides (GHK-R4 (SEQ ID NO.: 3) and Pal-GHK-R4 (SEQ ID NO.: 4)) according to the Examples of the present invention, MTT assay was performed. As a control, GHK-acetate was used. Fibroblasts were treated with various concentrations of each of the control and the novel peptides, and after 24 hours, treated with MTT reagent. Next, the absorbance was measured, and the viability of the cells was calculated based on the absorbance.
Molecule,"IC30 (cell viability, MTT) (fibroblasts, 24 hours treatment) [µM]","IC30 (cell viability, MTT)"
"H-GHKRRRR-OH [GHK-R4, H-GlyHisLys-ArgArgArgArg-OH]",~5320,
"NCCCC[C@H](NC(=O)[C@H](Cc1cnc[nH]1)NC(=O)CN)C(=O)O [GHK-acetate, glycine-histidyl-lysine tripeptide, reference compound] (H-Gly-His-Lys-OH)",,about 31.71 mM
"CCCCCCCCCCCCCCCC(=O)NCC(=O)N[C@@H](Cc1c[nH]cn1)C(=O)N[C@@H](CCCCN)C(=O)N[C@@H](CCCNC(=N)N)C(=O)N[C@@H](CCCNC(=N)N)C(=O)N[C@@H](CCCNC(=N)N)C(=O)N[C@@H](CCCNC(=N)N)C(=O)O [Pal-GHK-R4, Pal-GlyHisLys-ArgArgArgArg-OH] (Palmitoyl-GHKRRRR-OH)",,~8.70 µM
